Test results reported in patent US20140162942A1, “INHIBITION OF CYP3A DRUG METABOLISM” (priority 2010, published 2014).
Like-named read-outs stand apart in the source and are kept apart here.

Legend:
[1] = target: T1, CYP2A6 (Homo sapiens, UniProt P11509); assay: CYP2A6 inhibition, coumarin 7-hydroxylation in human liver microsomes; format: in vitro ADME; conditions: for Potential for Time-Dep. Inhibition: comparison with and without 30-minute pre-incubation; for inhibition at 5 min, 100 µM: human, pH 7.4, probe coumarin (7-hydroxylation)
T1 construct: Pooled human liver microsomes (from sixteen individuals) were used as the source of enzymes; tissue XenoTech, LLC; host or cells: human liver microsomes, pool of sixteen donors
T1 sequence (P11509 1-494): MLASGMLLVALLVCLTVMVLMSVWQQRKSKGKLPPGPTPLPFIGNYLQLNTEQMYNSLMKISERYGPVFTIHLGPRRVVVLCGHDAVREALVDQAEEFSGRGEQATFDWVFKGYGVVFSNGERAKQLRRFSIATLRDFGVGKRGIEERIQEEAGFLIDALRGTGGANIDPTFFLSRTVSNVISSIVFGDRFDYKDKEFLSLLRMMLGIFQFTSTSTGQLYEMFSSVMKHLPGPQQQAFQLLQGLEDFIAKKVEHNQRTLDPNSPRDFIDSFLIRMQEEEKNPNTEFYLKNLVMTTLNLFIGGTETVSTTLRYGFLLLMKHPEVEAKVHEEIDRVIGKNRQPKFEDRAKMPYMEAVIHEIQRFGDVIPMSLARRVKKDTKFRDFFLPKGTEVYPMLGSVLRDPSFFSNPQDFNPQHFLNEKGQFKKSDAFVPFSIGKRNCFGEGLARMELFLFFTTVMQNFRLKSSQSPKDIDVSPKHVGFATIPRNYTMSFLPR
Protocol: (§1) The basis for many of the following incubation conditions is described in the following references: Madan, et al., 2002,^(1) Huang, 2004,^(3) Ogilvie, et al., 2006,^(6) Pearce, et al., 1996,^(7) Tucker, et al., 2001,^(4) and Walsky and Obach, 2004.^(5) In general, incubations were conducted at approximately 37° C. in 400-μL incubation mixtures (target pH 7.4) containing high purity water, potassium phosphate buffer (50 mM), MgCl2 (3 mM), EDTA (1 mM), an NADPH-generating system [always the mixture of the following: NADP (1 mM), glucose-6-phosphate (5 mM), glucose-6-phosphate dehydrogenase (1 Unit/mL)], and marker substrate at the final concentrations indicated. Pooled human liver microsomes (from sixteen individuals) were used as the source of enzymes (Section 1.3.1.2). The concentrations of marker substrates were based on the Km and Vmax data that were determined previously (data not shown).
(§2) Due to the possibility that boceprevir may bind to microsomal protein or lipids, an attempt was made to design these experiments such that, in as many cases as possible, the microsomal protein, incubation time, and phosphate buffer concentration were 0.1 mg/mL, 5 minutes and 50 mM, respectively, for assays performed with human liver microsomes (Table 1). […] Since it is not imperative that the concentration of marker substrates be exactly equal to Km, the marker substrate concentrations were rounded up or down, as applicable, to simplify the experimental design (data not shown). […] Thus, the final incubation concentration of phenacetin was 60 μM (Table 1).
(§3) The ability of boceprevir to inhibit the CYP enzymes listed in Section 1.2.1 was investigated with a pool of sixteen individual human liver microsomal samples at the concentrations indicated in Table 1. Aliquots of the stock and/or working solutions of boceprevir were manually added to buffer mixtures containing the components described in Section 1.3.21. Incubation mixtures were prepared in bulk to obviate the need for directly pipetting very small volumes (i.e., 1 μL or less). Incubations containing no boceprevir (0 μM) contained the vehicle used to dissolve boceprevir (i.e., 1% methanol).
(§4) The Tecan liquid handling system conducted all remaining incubation steps, with the exception of the centrifugation. Aliquots of the buffer mixtures were then automatically added to 96-well plates at the appropriate locations in duplicate. Aliquots of a substrate working solution were added to the 96-well plates, prior to initiating reactions, to give the final concentrations indicated in Table 1. Reactions were initiated with the addition of an aliquot of an NADPH-generating system. Reactions were automatically terminated at approximately 5 minutes, by the addition of the appropriate internal standard (Table 5) and stop reagent; acetonitrile. Precipitated protein was removed by centrifugation (920 g for 10 minutes at 10° C.). Standards and quality control samples were similarly prepared with the addition of authentic metabolite standards.
(§5) To examine its ability to act as a time-dependent inhibitor, boceprevir (at the same concentrations used to evaluate direct inhibition) was pre-incubated at 37±1° C., in duplicate, with human liver microsomes and an NADPH-generating system for approximately 30 minutes. This pre-incubation allowed for the generation of intermediates that could inhibit human CYP enzymes. The pre-incubations were initiated with the addition of an aliquot of an NADPH-generating system. […] Reactions were automatically terminated, at approximately 5 minutes, by the addition of the appropriate internal standard (Table 5) and stop reagent; acetonitrile. Precipitated protein was removed by centrifugation (920 g for 10 minutes at 10° C.). Incubations containing no boceprevir (0 μM) and incubations that contained boceprevir but were not pre-incubated, served as negative controls.

[2] = target: T2, CYP2C19 (Homo sapiens, UniProt P33261); assay: CYP2C19 inhibition, S-mephenytoin 4′-hydroxylation in human liver microsomes; format: in vitro ADME; conditions: for Potential for Time-Dep. Inhibition: comparison with and without 30-minute pre-incubation; for inhibition at 5 min, 100 µM: human, pH 7.4, probe S-mephenytoin (4′-hydroxylation)
T2 construct: Pooled human liver microsomes (from sixteen individuals) were used as the source of enzymes; tissue XenoTech, LLC; host or cells: human liver microsomes, pool of sixteen donors
Protocol: as §1, §2, §3, §4, §5

[3] = target: T3, CYP2E1 (Homo sapiens, UniProt P05181); assay: CYP2E1 inhibition, chlorzoxazone 6-hydroxylation in human liver microsomes; format: in vitro ADME; conditions: for Potential for Time-Dep. Inhibition: comparison with and without 30-minute pre-incubation
T3 construct: Pooled human liver microsomes (from sixteen individuals) were used as the source of enzymes; tissue XenoTech, LLC; host or cells: human liver microsomes, pool of sixteen donors
Protocol: as §1, §2, §3
The Tecan liquid handling system conducted all remaining incubation steps, with the exception of the centrifugation. Aliquots of the buffer mixtures were then automatically added to 96-well plates at the appropriate locations in duplicate. Aliquots of a substrate working solution were added to the 96-well plates, prior to initiating reactions, to give the final concentrations indicated in Table 1. Reactions were initiated with the addition of an aliquot of an NADPH-generating system. […]

[4] = system: CYP3A4/5; assay: CYP3A4/5 inhibition, testosterone 6β-hydroxylation in human liver microsomes; format: in vitro ADME; conditions: for Potential for Time-Dep. Inhibition: comparison with and without 30-minute pre-incubation; for IC50 at 5 min / inhibition at 5 min, 100 µM: human, pooled human liver microsomes, pH 7.4, probe testosterone (6β-hydroxylation)
Protocol: as §1, §2, §3, §4, §5

[5] = Qualitative visual solubility in the test system; format: physicochemical; conditions: 10 μL of 10 mM methanol stock in 990 μL buffer with human liver microsomes, pH 7.4
Protocol: A stock solution of boceprevir (target concentration of 10 mM) in methanol was prepared and solubility testing was conducted to qualitatively assess boceprevir solubility in the test system. An aliquot (10 μL) of the highest stock boceprevir solution (10 mM in methanol) was added to a 990-μL mixture (target pH 7.4) containing high purity water, potassium phosphate buffer (50 mM), MgCl2 (3 mM), EDTA (1 mM), and human liver microsomes (0.0125 and 0.1 mg/mL) at the final concentrations listed (for a total volume of 1000 μt). […] The stock solution (10 mM boceprevir for IC50 determinations), along with dilutions to working solutions (ranging from 0.01 to 3.0 mM boceprevir) were prepared fresh each day experiments were performed. […] These solutions were prepared fresh on the day the Ki determination experiment was performed. Additionally, a stock concentration of 0.3 mM was used in the NADPH dependence/effects of dilution, as well as the MIC formation experiment.

[6] = direct inhibition, zero-minute pre-incubation, pooled human liver microsomes
[7] = pooled human liver microsomes, direct inhibition, zero-minute pre-incubation, read-out: Max. Inhib. at 100 μM
[8] = pooled human liver microsomes, time-dependent inhibition, 30-minute pre-incubation, read-out: Maximum Inhibition at 100 μM
[9] = time-dependent inhibition, 30-minute pre-incubation

T3 sequence (P05181 whole entry): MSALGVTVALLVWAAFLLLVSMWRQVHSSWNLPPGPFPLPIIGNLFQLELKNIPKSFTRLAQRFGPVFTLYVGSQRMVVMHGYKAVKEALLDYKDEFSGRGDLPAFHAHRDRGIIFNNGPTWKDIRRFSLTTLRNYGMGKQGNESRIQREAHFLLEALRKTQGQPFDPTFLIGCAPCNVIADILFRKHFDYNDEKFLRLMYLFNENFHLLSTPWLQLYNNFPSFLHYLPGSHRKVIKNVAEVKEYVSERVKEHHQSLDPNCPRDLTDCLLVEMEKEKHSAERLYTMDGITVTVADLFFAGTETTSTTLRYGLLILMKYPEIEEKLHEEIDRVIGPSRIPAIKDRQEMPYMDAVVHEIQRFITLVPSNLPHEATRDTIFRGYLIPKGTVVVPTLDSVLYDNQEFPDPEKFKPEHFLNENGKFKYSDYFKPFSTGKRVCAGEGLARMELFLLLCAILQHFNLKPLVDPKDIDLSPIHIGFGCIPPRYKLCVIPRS
T2 sequence (P33261 whole entry): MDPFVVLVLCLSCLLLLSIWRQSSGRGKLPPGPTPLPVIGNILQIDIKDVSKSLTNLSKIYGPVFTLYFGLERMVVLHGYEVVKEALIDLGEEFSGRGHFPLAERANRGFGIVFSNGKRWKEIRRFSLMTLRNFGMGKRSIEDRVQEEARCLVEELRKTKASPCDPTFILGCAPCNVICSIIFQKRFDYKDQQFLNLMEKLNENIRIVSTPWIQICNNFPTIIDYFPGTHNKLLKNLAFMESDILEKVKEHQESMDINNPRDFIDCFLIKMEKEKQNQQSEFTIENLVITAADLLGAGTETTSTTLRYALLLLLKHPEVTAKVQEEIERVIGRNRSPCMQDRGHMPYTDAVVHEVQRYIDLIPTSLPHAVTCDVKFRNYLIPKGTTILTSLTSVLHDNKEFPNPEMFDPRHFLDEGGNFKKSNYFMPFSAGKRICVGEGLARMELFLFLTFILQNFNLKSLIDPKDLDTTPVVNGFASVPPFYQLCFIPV

In the case of `CC(C)(C)NC(=O)NC(C(=O)N1CC2C([C@H]1C(=O)NC(CC1CCC1)C(=O)C(N)=O)C2(C)C)C(C)(C)C` (stereo partly drawn) [Boceprevir, (1R,2S,5S)—N-[(2Ξ)-4-amino-1-cyclobutyl-3,4-dioxobutan-2-yl]-3-{(2S)-2-[(tert-butylcarbamoyl)amino]-3,3-dimethylbutanoyl}-6,6-dimethyl-3-azabicyclo[3.1.0]hexane-2-carboxamide], the “Potential for Time-Dep. Inhibition” value [1] is reported as “little or no”, the “Potential for Time-Dep. Inhibition” value ([1]; listed as boceprevir) is reported as “no discernable time-dependent inhibition” and the IC50 [1, 6] is reported as > 100 µM. The inhibition at 5 min, 100 µM [1, 7] was 20%, the inhibition at 5 min, 100 µM [1, 8] was 7.8% and the IC50 [1, 9] was > 100 µM. For the same molecule, the “Potential for Time-Dep. Inhibition” value [2] was “little or no”, the “Potential for Time-Dep. Inhibition” value ([2]; listed as boceprevir) was “no discernable time-dependent inhibition” and the IC50 [2, 6] was > 100 µM. The inhibition at 5 min, 100 µM [2, 7] was 25%, the inhibition at 5 min, 100 µM [2, 8] was 14% and the IC50 [2, 9] was > 100 µM. For the same molecule, the “Potential for Time-Dep. Inhibition” value [3] was “little or no”, the “Potential for Time-Dep. Inhibition” value ([3]; listed as boceprevir) was “no discernable time-dependent inhibition” and the IC50 [3, 6] was > 100 µM. For the same molecule, the IC50 [3, 9] was > 100 µM, the “Potential for Time-Dep. Inhibition” value [4] was “yes^c” and the “Potential for Time-Dep. Inhibition” value ([4]; listed as boceprevir) was “caused time-dependent inhibition”. The IC50 at 5 min ([4]; direct inhibition, zero-minute pre-incubation) was > 100 µM, the inhibition at 5 min, 100 µM ([4]; direct inhibition, zero-minute pre-incubation, read-out: Max. Inhib. at 100 μM) was 41% and the IC50 at 5 min [4, 9] was 2.3 µM. The inhibition at 5 min, 100 µM ([4]; time-dependent inhibition, 30-minute pre-incubation, read-out: Maximum Inhibition at 100 μM) was 95% and the “Solubility in the test system (qualitative visual comparison)” value [5] was “soluble”.
